Measured values taken from patent US12180159B2, “Activators of the unfolded protein response” (The Board of Trustees of the University of Illinois, priority 2018, dated 2024).

Key:
[1] = test system: ERα positive and ERα negative cell lines; assay type: cell-based
Protocol: ERα positive MCF-7 breast cancer, Caov-3 ovarian cancer and ECC-1 uterine cancer cells and ERα negative MDA-MB-231 human breast cancer cells and HeLa, human cervical carcinoma cells and MCF-10A human mammary epithelial cells were plated at 10,000 cells/well (96 well plate) in 50 μl of medium. After about 18 hours, an additional 50 μl of medium containing 2× the desired final concentration of the test compound (C-105) was added to each well (final vol. 100 μl/well). After 24 hours Alamar Blue reagent was added and fluorescence in the wells was read after 1 hour (BMG PheraStar Microplate Reader). % relative death was determined by setting the reading for 10,000 nM raptinal-treated cells to 100% dead cells and the reading for vehicle-treated cells to 0% dead cells. (Data is the average±SEM of 3 independent experiments with 5 biological replicates for each sample within each independent experiment.)
FIG. 3 compares the ability of (±)-105 to kill ERα positive and ERα negative cells. The dose response tests the ability of (±)-105 to rapidly kill ERα positive and ERα negative cells. […] After 24 hours Alamar Blue reagent was added and fluorescence in the wells was read. % relative death was determined by setting the reading for […] raptinal-treated cells to 100% dead cells and the reading for vehicle-treated cells to 0% dead cells. […]

TYS cells (T47DERαY537S) = assay: Trypan Blue exclusion cell death assay, TYS cells; assay type: cell-based, human; settings: 24 hours
Description: (§1) TRYPAN BLUE: For decades, viable cells have been measured by their ability to exclude the dye Trypan Blue. […] Dead cells, which have lost membrane integrity, take up the dye and are blue. Thus, the percentage of dead cells is the percentage of cells that are Trypan Blue positive out of the total cell population. Quantitative assessment of Trypan Blue uptake uses a cell counter from Fisher. Since the assay is instrument based, there is no observer bias in determining the percentage of Trypan Blue positive cells.
(§2) TRYPAN BLUE ASSAYS: Assays are performed on cells in 6 well plates: 300,000 cells are plated in each well of a 6 well plate in 3 ml of medium. After 24 hours, the DMSO vehicle or the indicated compound is added (in 1000th of the vol.) The cells incubated for an additional 24 hours, and then harvested in 0.25 ml of trypsin, followed after harvest by 0.75 ml of medium. The cells are spun down and resuspended in 100-200 μl of medium left that is over the cell pellet (resuspend cells by pipetting up and down a few times). Add 10 μl to 10 μl of trypan blue. Then 10 μl is inserted into the counting slide. After inserting the slide into the Fisher TC20 counting is automatic (these many cells are needed because an accurate ratio of Trypan Blue positive to Trypan Blue negative cells requires about 200 cells in the field the instrument counts).
TYS cells were incubated for 24 hours with 35 nM of BHPI or 35 nM of each of the indicated test compounds: 2, 4, and 105. Cell death was determined using the instrument-based Trypan Blue exclusion assay. (n=3±SEM).
TYS cells were incubated for 24 hours with 50 nM of BHPI or 50 nM of each of the indicated test compounds: 4, 6 and 105. Cell death was determined using the instrument-based Trypan Blue exclusion assay. (n=3±SEM).

[2] = test system: T47D, TYS-4 and TDG-1 cells; assay: MTS proliferation assay, T47D, TYS and TDG cells; assay type: cell-based, human; settings: 4 days
Protocol: FIG. 30 compares the ability of BHPI and test compounds to inhibit proliferation of T47D, TYS and TDG cells. T47D cells were in medium containing 10 FBS (which contains estrogen), TYS-4 and TDG-1 cells were in medium containing 10% cd-FBS (estrogen depleted). Cells are plated at 2,000 cells/well in 96 well plates. After 24 hours in medium containing FBS or charcoal-dextran treated FBS (depleted of endogenous estrogens), the indicated concentration of each compound (in DMSO at 1/1000th of the volume of medium) was added. After 2 days the medium was changed, and the compounds were added again. After 2 additional days (4 days total) MTS assays are used to evaluate cell proliferation. (n=6±S.E.M.).

Caov-3 cells = assay: Cell death of Caov-3 ovarian cancer cells (automated Trypan Blue exclusion); assay type: cell-based, human; settings: 24 hours
Protocol: FIG. 33. 105, but not BHPI, kills therapy-resistant ovarian CaOV-3 ovarian cancer cells. (±)-105; Cell death assay: Automated Trypan Blue exclusion. (24 hours post (±)-105) FIG. 34. (−)105 nearly eradicates ER+ drug-resistant tumors. Orthotopic breast cancer model, TYS-Luc cells, 40 mg/kg (−)-105 i.p., daily. 7 d Post injection image is a much longer exposure at higher gain than before injection image.
Caov3: Drug resistant ERα positive ovarian cancer cells. […] These cells are completely resistant to tamoxifen and fulvestrant and partially resistant to cisplatin and paclitaxel.

TDG cells (T47DERαD538G) = assay: Trypan Blue exclusion cell death assay, TDG cells; assay type: cell-based, human; settings: 24 hours; for killing of TDG-Luc cells: dose response
Description: as §1, §2
The Trypan Blue cell death assay was used to evaluate the ability of the active enantiomer of C-105 [(−)-105] to kill ERα positive TDG-Luc cells. For all studies, 300,000 TDG-Luc cells/well in 10% FBS were plated in a 6 well plate in triplicate. 24 hours after plating, the indicated concentrations the active enantiomer of (−)-105, or BHPI (top) ICI, or OHT (Lower left) or (+)-105 (lower right) were added. After 24 hours, the cells were harvested, and the % dead cells was determined by automated Trypan Blue exclusion using the Countess II automated hemocytometer. Percentage of viable cells was calculated by doing 100−(Cell Death %). (n=3±SEM).
TDG cells were incubated for 24 hours with 75 nM of BHPI or 75 nM of each of the indicated test compounds: 4, 6 and (±)-105 (enantiomers not separated). Cell death was determined using the instrument-based Trypan Blue exclusion assay. Structures are in the Synthesis section. […] (n=3±SEM).

[3] = test system: ERα Negative MCF-10A cells; assay: Trypan Blue exclusion cell death assay, MCF-10A cells; assay type: cell-based; settings: 75 nM, 24 hours
Description: as §1, §2
In FIG. 28, neither the test compounds nor BHPI kill non-tumorigenic ERα Negative MCF-10A breast cells. ERα Negative MCF-10A cells were maintained for 24 hours in DMSO vehicle or 75 nM of BHPI or 75 nM of each of the indicated test compounds: 4, 6 and 105. Cell death was determined using the instrument-based Trypan Blue exclusion assay. (n=3±SEM).

[4] = test system: MCF-7 ERα Y537S-luciferase cells; assay: Long-term cell culture experiment, MCF-7Y537S cells; assay type: cell-based, human; settings: conditions as FIG. 15
MCF-7 and TYS-Luc cells = assay: Cell death with 2-APB or thapsigargin (Trypan Blue exclusion); assay type: cell-based, human; settings: 2-APB
Protocol: ERα positive MCF-7 and TYS-Luc were treated with DMSO vehicle (Veh), or BHPI or (−)-105 plus or minus 2-APB for the indicated times. Cells death was determined using the instrument-based Trypan Blue exclusion assay. […] This is consistent with (−)-105 inducing powerful lethal activation of the anticipatory UPR pathway. (n=3±SEM). […] TYS-Luc cells were maintained in DMSO vehicle (Veh) or BHPI, or (−)-105 with or without thapsigargin (THG) for the indicated times. Blocking the decline in ATP levels (FIG. 19) with THG inhibited (−)-105-induced cell death. […] (n=3±SEM).

MCF-7 tumors = assay: MCF-7 orthotopic tumor model; assay type: in vivo, mouse; settings: mouse, in vivo
Protocol: FIG. 39. SERK-F6 eradicates wild-type ERα tumors via hyperactivation of aUPR. a, MCF-7 orthotopic tumors were established in Nu/J ovariectomized mice supplemented with a 60 day E2 pellet (0.36 mg) and grown to ˜400 mm^3 (28 days to establish), randomized, then treated with vehicle daily (n=3), vehicle weekly (n=3), fulv. weekly (5 mg/mouse, s.c., n=6), SERK-F6 daily (10 or 40 mg/kg p.o.). Vehicle arms were averaged. p values: *: p<0.05, **: p<0.01, ***: p<0.001, ****: p<0.0001. Tumor images were taken at the end of the study (day 21) and are representative of all tumors (n=6). b-e, MCF-7 cells were orthotopically bi-laterally grafted and tumors were grown until total tumor burden was ˜ 400 mm^3 prior to daily treatment with vehicle or SERK-F6 (40 mg/kg p.o.). Mice (n=5 per arm) were sacrificed after 3 days (b,c) and 7 days (d,e) and tumors harvested. […] Vinculin (Vin) was used as a loading control. […] Error bars represent S.E.M.
FIG. 40. SERK-F6 is tolerated, reaches biologically relevant concentrations, and crosses the blood-brain barrier in vivo. a, Serum concentrations of SERK-F6 after indicated doses, route of administration, and time. Concentration was determined via LC/MS/MS analysis. […] AUC: Area Under the Curve, Cmax: maximum concentration, t1/2: half-life. c,d, Mice (CD-1) were treated with the indicated doses and times, then sacrificed and their serum and brains collected. Concentrations were determined via LC/MS/MS analysis. […] Treatment arms: vehicle daily (n=3), vehicle weekly (n=3), fulv. weekly (5 mg/mouse, s.c., n=6), SERK-F6 daily (10 or 40 mg/kg p.o.). Vehicle arms were combined. g, Mass of tumors harvested from mice. h, observed murine weight during this MCF-7 study (n=6). i,j, Tumor measurements for MCF-7 bilateral orthotopic model (n=4-5).
To probe the efficacy of SERK-F6 for killing ERα positive tumors, large MCF-7 tumors were grown and then intervened with therapy. […] The mice were then sacrificed prior to complete tumor eradication.

[5] = test system: TYS and TDG breast cancer cells; assay: Killing of TYS and TDG breast cancer cells by endocrine therapy drugs; assay type: cell-based, human
OVCAR-3 cells = settings: OVCAR-3 orthotopic xenograft

In the case of `O=C1Nc2c(C(F)(F)F)cccc2C1(c1ccc(O)cc1)c1ccc(OC(F)(F)F)cc1` (racemic) [(±)-105, 3-(4-hydroxyphenyl)-3-(4-(trifluoromethoxy)phenyl)-7-(trifluoromethyl)indolin-2-one], the “selectivity for ERα positive cancer cell lines” value ([1]; 0-10,000 nM, 24 hours) is reported as “selective for ERα positive cancer cell lines”, the “ability to kill TYS cells compared to BHPI” value (TYS cells (T47DERαY537S); 35 nM) is reported as “greatly increased ability to kill” and the “ability to kill TYS cells compared to BHPI” value (TYS cells (T47DERαY537S); 50 nM) is reported as “increased ability to kill”. For the same molecule, the “effectiveness in killing ERα positive breast cancer cells compared to BHPI” value (“effectiveness … compared to BHPI” for short) [2] was “more effective than BHPI”, the “killing of Caov-3 ovarian cancer cells” value (Caov-3 cells) was “kills” and the “ability to kill TDG cells compared to BHPI” value (TDG cells (T47DERαD538G); 75 nM) was “greatly increased ability to kill”. The “death of ERα Negative MCF-10A cells” value [3] was “neither BHPI nor any of the test compounds induce significant death”.
For `O=C1Nc2c(C(F)(F)F)cccc2C1(c1ccc(O)cc1)c1ccc(OC(F)(F)F)cc1` (single isomer, unassigned; (+)) [(+)-105, 3-(4-hydroxyphenyl)-3-(4-(trifluoromethoxy)phenyl)-7-(trifluoromethyl)indolin-2-one], the “effect of the inactive enantiomer in ERα positive and ERα negative cell lines” value [1] was “ineffective and not toxic”, the “effect on MCF-7Y537S cells in long-term experiments” value [4] was “inactive” and the “killing of TDG-Luc cells” value (TDG cells (T47DERαD538G)) was “inactive and does not kill”.
With `NCCOB(c1ccccc1)c1ccccc1` [2-APB] the “effect on (−)-105-induced cell death” value (MCF-7 and TYS-Luc cells; 45 and 60 min.) was “partially blocked” and the “effect on (−)-105-induced cell death” value (MCF-7 and TYS-Luc cells; 30 minutes) was “nearly completely blocked”.
`COc1ccc(C2(c3ccc(O)cc3)C(=O)Nc3c(C)cccc32)cc1` (centres unmarked) [compound 2, 3-(4-hydroxyphenyl)-3-(4-methoxyphenyl)-7-methylindolin-2-one] was tested, and the “effectiveness … compared to BHPI” value [2] was “more effective than BHPI”.
`Cc1cccc2c1NC(=O)C2(c1ccc(O)cc1)c1ccc(OC(F)(F)F)cc1` (centres unmarked) [compound 6, 3-(4-hydroxyphenyl)-7-methyl-3-(4-(trifluoromethoxy)phenyl)indolin-2-one] was tested, and the “effectiveness … compared to BHPI” value [2] was “more effective than BHPI” and the “death of ERα Negative MCF-10A cells” value [3] was “neither BHPI nor any of the test compounds induce significant death”.
In the case of `C[C@]12CC[C@@H]3c4ccc(O)cc4C[C@@H](CCCCCCCCC[S+]([O-])CCCC(F)(F)C(F)(F)F)[C@H]3[C@@H]1CC[C@@H]2O` (some centres unmarked) [fulvestrant, reference compound], the “effect on large established MCF-7 tumors” value (MCF-7 tumors) is reported as “dramatic effects against these large and established tumors are not obtained”, the “killing of TDG-Luc cells” value (TDG cells (T47DERαD538G)) is reported as “do not kill” and the “ability to kill TYS and TDG breast cancer cells” value [5] is reported as “no ability at all to kill”.
For `CC(=O)O[C@H]1C(=O)[C@@]2(C)[C@H]([C@H](OC(=O)c3ccccc3)[C@]3(O)C[C@H](OC(=O)[C@H](O)[C@@H](NC(=O)c4ccccc4)c4ccccc4)C(C)=C1C3(C)C)[C@]1(OC(C)=O)CO[C@@H]1C[C@@H]2O` [paclitaxel], the “effect on tumor growth / tumors” value (OVCAR-3 cells) was “ineffective”.
For `CC/C(=C(\c1ccccc1)c1ccc(OCCN(C)C)cc1)c1ccccc1` [tamoxifen], the “ability to kill TYS and TDG breast cancer cells” value [5] was “no ability at all to kill”.
